Several values for one entry are separate records, joined by “and”; a condition that tells them apart may be missing. Equal entries are not always repeated.
Assays:
[1] = Example 1 safety and tolerability (adverse events, vital signs, ECG, laboratory); assay type: in vivo, human
Method: On Day 1, study drug was initiated at a starting dose of 0.5 ng/kg/min, and dose increases occurred every 30 minutes (+5 minutes) in increments of 0.5 ng/kg/min up to 2.0 ng/kg/min or the individual tolerated dose. If dose-limiting adverse events (e.g., headache, flushing, jaw pain, myalgia, nausea, or vomiting) occurred that could not be tolerated by the subject, or if the subject experienced symptomatic hypotension, then the dose was reduced in a step-wise manner by 0.5 ng/kg/min every 30 minutes (+5 minutes) until a tolerated dose was determined or the infusion was stopped until the symptoms resolved at which point the study drug was reinitiated at a previously tolerated dose. If symptomatic hypotension or a dose-limiting adverse event occurred during administration of iloprost at the starting dose (i.e., 0.5 ng/kg/min), the infusion was reduced to 0.25 ng/kg/min. If the dose of 0.25 ng/kg/min was not tolerated due to symptomatic hypotension or if a dose-limiting adverse event occurred, the study drug was discontinued, and re-initiation of the infusion could have been attempted after the event had resolved or had been treated. Blood pressure and heart rate were monitored 15 minutes (+5 minutes) prior to and after all dose changes. The maximum tolerated dose was maintained for the remaining 6-hour daily period. At the end of the 6-hour infusion period, the dose was stopped. Subjects were to be monitored for up to 1 hour after completion of study drug infusion (i.e., vital signs were obtained 15 minutes [±5 minutes] and 1 hour [±15 minutes] after completion of the infusion).
Vital signs were measured prior to study drug administration and at 15 minutes (±5 minutes) prior to and after all dose changes during the infusion. Additionally, vital signs were monitored at 15 minutes (±5 minutes) and 1 hour (±15 minutes) after completion of the 6-hour infusion.
Safety parameters included adverse events, physical examination findings, vital sign measurements (heart rate and blood pressure), 12-lead electrocardiogram (ECG) findings, and standard clinical laboratory measurements (chemistry and hematology).

[2] = Example 3 solution stability of fully diluted ready-to-use iloprost in IV bags (HPLC); assay type: physicochemical
Method: Iloprost 100 μg/mL injection product is administered to patients by IV bag infusion over a period of six hours. The fully diluted ready to use iloprost is prepared in pharmacy cleanroom using sterile preparation standards (USP Chapter <797>) by pharmacy trained and licensed staff. The fully diluted ready to use drug product may be prepared several hours ahead of treatment with storage at ambient conditions or several days ahead of treatment with storage at refrigerated (2-8° C.) conditions. The IV bags are prepared using empty sterile IV bags which are filled with 99 mL of 0.9% NaCl and 1.0 mL of iloprost 100 µg/mL injection product. The bags are then manually mixed gently to provide a uniform solution. […] IV Bag Sample Preparation: Two 50 mL syringes with 18-gauge needles were assembled. 1.0 mL syringe with 18-gauge needle was assembled. Using a 50 mL syringe, 50 mL of 0.9% NaCl was transferred into an empty IV bag (sterile, ICU Medical) using the injection port. Using a second 50 mL syringe, 49 mL of 0.9% NaCl was transferred into the same IV bag using the injection port resulting in 99 mL of solution. Using the 1 ml syringe, 1.0 mL of iloprost 100 μg/mL injection product was transferred into the IV bag using the injection port. The needle was removed and the port was securely closed. The IV bag was gently inverted several times to mix. During inversion, it was occasionally paused to squeeze the injection port area to ensure liquid rinsed into area several times. Sampling Procedure: For sampling, a 3 mL syringe was assembled with an 18-gauge needle. Using a 3 ml syringe, 2 mL of IV bag solution was withdrew through the injection port and 1 mL was transferred to a HPLC vial for neat injection and the other 1 ml was transferred to a back-up HPLC vial. HPLC vials were stored at refrigerated conditions 2-8° C. Sample Storage and Sampling: For each testing conditions (i-iv discussed above), 12 IV bag samples were prepared (6 IV bags for condition ia)-see below for sampling time). For condition i), all 12 IV bags were then placed into 25° C./60% RH stability chamber ensuring each bag is resting on its largest surface area side. After the first time point, the IV bags were removed from the chamber and each IV bag was mixed by inversion several times. Sampling from each IV bag was taken for HPLC analysis. After sampling, the IV bags were placed back into 25° C./60% RH stability chamber ensuring each bag is resting on its largest surface area side, until next sampling time. At each sampling time, the IV bags were removed from the chamber and each IV bag was mixed by inversion several times before samples were removed. For conditions ii) and iii), all 12 IV bags for each testing condition was placed into a 2-8° C. stability chamber ensuring each bag is resting on its largest surface area side. After 5 days have passed for condition ii) or after 8 days have passed for condition iii), the IV bags were removed from the chamber and allowed to equilibrate to room temperature. Each IV bag was mixed by inversion several times. Sampling from each IV bag was taken for HPLC analysis. Then the IV bags were placed in the 25° C./60% RH stability chamber and sampled at certain time points as discussed herein. […]

[3] = Table 8A, IV bag 25° C./60% RH, 2 h
[4] = Table 8A, IV bag 25° C./60% RH, 4 h
[5] = Table 8A, IV bag 25° C./60% RH, 6 h
[6] = Table 8A, IV bag 25° C./60% RH, 8 h
[7] = Table 8A, IV bag 25° C./60% RH, 24 h
[8] = Table 8B, Batch 1, 25° C./60% RH, 8 hr
[9] = Table 8B, Batch 1, 25° C./60% RH, 12 hr
[10] = Table 8B, Batch 1, 25° C./60% RH, 48 hr
[11] = Table 8B, Batch 1, 25° C./60% RH, 96 hr
[12] = Table 8C, Batch 2, 25° C./60% RH, 8 hr
[13] = Table 8C, Batch 2, 25° C./60% RH, 12 hr
[14] = Table 8C, Batch 2, 25° C./60% RH, 48 hr
[15] = Table 8C, Batch 2, 25° C./60% RH, 96 hr
[16] = Table 8D, Batch 1, 5° C. for 5 days
[17] = Table 8D, Batch 1, 5° C. for 5 days, 25° C./60% RH for 8 hr
[18] = Table 8D, Batch 1, 5° C. for 5 days, 25° C./60% RH for 12 hr
[19] = Table 8E, Batch 2, 5° C. for 5 days
[20] = Table 8E, Batch 2, 5° C. for 5 days, 25° C./60% RH for 8 hr
[21] = Table 8E, Batch 2, 5° C. for 5 days, 25° C./60% for 12 hr

CC#CCC(C)[C@H](O)/C=C/[C@@H]1[C@H]2C/C(=C/CCCC(=O)O)C[C@H]2C[C@H]1O (stereo partly drawn) [Iloprost, (5E)-5-[(3aS,4R,5R,6aS)-5-hydroxy-4-[(E,3S)-3-hydroxy-4-methyloct-1-en-6-ynyl]-3,3a,4,5,6,6a-hexahydro-1H-pentalen-2-ylidene]pentanoic acid]
TEAE abdominal pain ([1]; human, in vivo, 5 days): 4 [23.5%] subjects (%) | TEAE flushing ([1]; human, in vivo, 5 days): 5 [29.4%] subjects (%) | TEAE headache ([1]; human, in vivo, 5 days): 16 [94.1%] subjects (%) | TEAE nausea ([1]; human, in vivo, 5 days): 11 [64.7%] subjects (%) | subjects who experienced TEAEs considered severe by the Investigator ([1]; human, in vivo, 5 days): Two (11.8%) subjects (%) | subjects who experienced a TEAE ([1]; human, in vivo, 5 days): 17 (100.0%) subjects (%) | TEAEs related to vital signs, physical examination findings, or ECGs ([1]; in vivo): no TEAEs | bradycardia or tachycardia ([1]; in vivo): no bradycardia or tachycardia | changes in chemistry or hematology laboratory values ([1]; in vivo): no clinically significant changes | hypertensive or hypotensive events ([1]; in vivo): no hypertensive or hypotensive events | deaths, SAEs, AESIs, TEAEs leading to study drug discontinuation ([1]; whole study): no deaths, SAEs, AESIs, or TEAEs leading to study drug discontinuation | % Initial [2, 3]: 100.8% and 99.4% and 100.2% and 99.7% and 100.5% and 100.4% | Iloprost (%) [2, 3]: 95.0% and 94.2% and 94.8% and 94.7% and 95.3% | % Initial [2, 4]: 101.0% and 99.5% and 99.6% and 100.3% and 101.3% and 101.9% | Iloprost (%) [2, 4]: 95.2% and 94.3% and 94.7% and 95.5% and 96.7% | % Initial [2, 5]: 101.6% and 100.2% and 100.5% and 99.3% and 101.7% and 100.6% | Iloprost (%) [2, 5]: 95.7% and 95.0% and 95.1% and 93.7% and 95.9% and 95.4% | % Initial [2, 6]: 100.0% and 101.9% and 101.1% and 99.9% | Iloprost (%) [2, 6]: 94.3% and 94.8% and 94.6% and 96.2% and 95.3% | % Initial [2, 7]: 102.2% and 101.4% and 102.0% and 100.1% and 98.9% and 100.5% | Iloprost (%) [2, 7]: 97.0% and 95.5% and 96.7% and 94.7% and 93.4% and 94.8% | Iloprost (%) ([2]; Table 8A, IV bag, 1.0 mL 100 μg/mL product + 99 mL 0.9% NaCl, Initial, Samples 1-6): 94.2% and 94.8% and 94.6% and 94.4% and 94.3% and 94.9% | % Initial [2, 8]: 100% and 104% and 101% and 103% | Iloprost [2, 8]: 973.6 ng/mL and 1010 ng/mL and 979.5 ng/mL and 1003 ng/mL and 977.2 ng/mL and 1007 ng/mL | % Initial [2, 9]: 103% and 104% and 105% and 99% | Iloprost [2, 9]: 1004 ng/mL and 1009 ng/mL and 978.2 ng/mL and 1042 ng/mL and 975.1 ng/mL and 1005 ng/mL | % Initial [2, 10]: 103% and 101% and 100% | Iloprost [2, 10]: 1004 ng/mL and 995.2 ng/mL and 968 ng/mL and 1001 ng/mL and 984.6 ng/mL and 977.3 ng/mL | % Initial [2, 11]: 104% and 105% and 103% and 102% and 101% and 100% | Iloprost [2, 11]: 1013 ng/mL and 1017 ng/mL and 970.9 ng/mL and 1014 ng/mL and 994.1 ng/mL and 971.5 ng/mL | Iloprost ([2]; Table 8B, Batch 1, IV bag, Initial (T = 0), Preparations 1-6): 975.8 ng/mL and 977.5 ng/mL and 968.7 ng/mL and 942.8 ng/mL and 994.1 ng/mL and 981.9 ng/mL | % Initial [2, 12]: 102% and 101% and 100% and 96% | Iloprost [2, 12]: 995.8 ng/mL and 1002 ng/mL and 994.6 ng/mL and 1004 ng/mL and 998.8 ng/mL and 983.3 ng/mL | % Initial [2, 13]: 101% and 99% and 100% and 98% | Iloprost [2, 13]: 993.3 ng/mL and 984.1 ng/mL (2×) and 989.6 ng/mL and 994.8 ng/mL and 1005 ng/mL | % Initial [2, 14]: 101% and 99% and 104% and 100% | Iloprost [2, 14]: 993.7 ng/mL and 984.2 ng/mL and 994.4 ng/mL and 1032 ng/mL and 1005 ng/mL and 1015 ng/mL | % Initial [2, 15]: 102% and 99% and 101% and 100% | Iloprost [2, 15]: 1002 ng/mL and 979.5 ng/mL and 989 ng/mL and 1005 ng/mL and 996.3 ng/mL and 1027 ng/mL | Iloprost ([2]; Table 8C, Batch 2, IV bag, Initial (T = 0), Preparations 1-6): 1021 ng/mL and 980.9 ng/mL and 990.7 ng/mL and 980.7 ng/mL and 994.4 ng/mL and 1001 ng/mL | % Initial [2, 16]: 104% and 98% and 101% and 100% and 99% | Iloprost [2, 16]: 1050 ng/mL and 931.9 ng/mL and 1024 ng/mL (2×) and 1020 ng/mL and 1001 ng/mL | % Initial [2, 17]: 99% and 100% and 98% and 102% and 101% | Iloprost [2, 17]: 1002 ng/mL and 957.3 ng/mL and 993.8 ng/mL and 1040 ng/mL and 1025 ng/mL and 1011 ng/mL | % Initial [2, 18]: 97% and 99% and 100% and 101% | Iloprost [2, 18]: 976.5 ng/mL and 943.2 ng/mL and 1015 ng/mL and 1031 ng/mL and 1010 ng/mL and 982.7 ng/mL | Iloprost ([2]; Table 8D, Batch 1, IV bag, Initial (T = 0)): 996.6 ng/mL and 1007 ng/mL and 953.6 ng/mL and 1015 ng/mL and 1020 ng/mL and 1036 ng/mL | % Initial [2, 19]: 102% and 100% and 101% | Iloprost [2, 19]: 1026 ng/mL and 1009 ng/mL and 1025 ng/mL and 1030 ng/mL and 1011 ng/mL and 987.4 ng/mL | % Initial [2, 20]: 101% and 99% and 100% and 98% | Iloprost [2, 20]: 1023 ng/mL and 973.1 ng/mL and 1013 ng/mL and 1012 ng/mL and 996.7 ng/mL and 970.8 ng/mL | % Initial [2, 21]: 101% and 98% and 102% and 100% | Iloprost [2, 21]: 1022 ng/mL and 963.3 ng/mL and 1001 ng/mL | Iloprost ([2]; Table 8E, Batch 2, IV bag, Initial (T = 0)): 988.4 ng/mL | % Initial ([2]; Table 8F (5° C. for 8 days to 25° C./60% RH), Batch 1, time point 5° C. for 5 days [sic]): 103% and 99% and 102% and 100% | % Initial ([2]; Table 8F, Batch 1, 5° C. for 8 days, 25° C./60% RH for 8 hr): 99% and 98% and 107% and 100% | % Initial ([2]; Table 8F, Batch 1, 5° C. for 8 days, 25° C./60% RH for 12 hr): 101% and 100% and 99% | % Initial ([2]; Table 8G (5° C. for 8 days to 25° C./60% RH), Batch 2, time point 5° C. for 5 days [sic]): 99% and 97% and 102%
